Measurements: ChEMBL document CHEMBL3886378, “Heterocyclic sulfone mGluR4 allosteric potentiators, compositions, and methods of treating neurological dysfunction” (2015)

molecular target: Metabotropic glutamate receptor 4 (Homo sapiens, UniProt Q14833); experiment: Receptor Activity Assay: The disclosed compounds and compositions can be evaluated for their ability to act as a potentiator of metabotropic glutamate receptor activity, in particular mGluR4 activity, by any suitable known methodology known in the art. For example, Chinese Hamster Ovary (CHO) cells transfected with human mGluR4 or HEK cells co-transfected with rat mGluR4 and the G-protein regulated Inwardly Rectifying Potassium channel (GIRK) were plated in clear bottom assay plates for assay in a Hamamatsu FDSS Fluorometric Plate Reader. The cells were loaded with either a Ca2+-sensitive fluorescent dye or the thallium responsive dye and the plates were washed and placed into a suitable kinetic plate reader. For human mGluR4 assays, a fluorescence baseline was established for 3-5 seconds, the disclosed compounds were then added to the cells, and the response in cells was measured.; assay type: functional, cell-based, HEK293
Sequence (Q14833 whole entry): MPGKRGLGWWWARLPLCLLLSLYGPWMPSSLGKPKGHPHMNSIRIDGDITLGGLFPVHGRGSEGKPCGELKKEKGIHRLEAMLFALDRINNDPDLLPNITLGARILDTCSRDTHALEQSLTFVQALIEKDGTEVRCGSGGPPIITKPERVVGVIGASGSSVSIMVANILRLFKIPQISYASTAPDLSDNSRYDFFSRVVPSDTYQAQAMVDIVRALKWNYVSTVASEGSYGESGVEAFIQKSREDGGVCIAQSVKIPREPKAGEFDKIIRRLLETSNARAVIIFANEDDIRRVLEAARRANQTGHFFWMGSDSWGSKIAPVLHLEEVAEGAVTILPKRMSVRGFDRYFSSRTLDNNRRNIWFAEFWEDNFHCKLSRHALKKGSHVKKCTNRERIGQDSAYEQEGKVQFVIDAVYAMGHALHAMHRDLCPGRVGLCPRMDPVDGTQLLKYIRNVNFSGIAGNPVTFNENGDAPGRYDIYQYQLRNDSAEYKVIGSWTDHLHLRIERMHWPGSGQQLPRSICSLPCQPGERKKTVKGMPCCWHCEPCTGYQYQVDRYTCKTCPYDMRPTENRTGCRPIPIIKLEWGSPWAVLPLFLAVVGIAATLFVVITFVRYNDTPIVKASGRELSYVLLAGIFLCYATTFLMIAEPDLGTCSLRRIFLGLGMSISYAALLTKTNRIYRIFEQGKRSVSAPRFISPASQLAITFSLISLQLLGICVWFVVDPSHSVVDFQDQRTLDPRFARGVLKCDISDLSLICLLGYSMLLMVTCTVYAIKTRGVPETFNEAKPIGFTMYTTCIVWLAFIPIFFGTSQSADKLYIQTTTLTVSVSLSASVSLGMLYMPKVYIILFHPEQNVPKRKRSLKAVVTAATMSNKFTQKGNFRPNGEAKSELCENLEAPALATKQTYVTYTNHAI

**Q.** For Cc1nc(NC(=O)c2ccccn2)sc1S(=O)(=O)Cc1ccccc1Cl, which EC50 is on record?
**A.** 0.504 µM

**Q.** Which EC50 does the source give for CCc1nc(NC(=O)c2ccccn2)sc1S(=O)(=O)Cc1c(F)cccc1F here?
**A.** 0.139 µM

**Q.** O=C(Nc1ncc(S(=O)(=O)Cc2ccccc2Cl)s1)c1ccccn1 was tested. Which EC50 did it give?
**A.** > 10 µM

**Q.** For Cc1nc(NC(=O)c2ccccn2)sc1S(=O)(=O)Cc1ccc(Cl)cc1F, which EC50 is on record?
**A.** 0.255 µM

**Q.** Which EC50 does the source give for O=C(Nc1ncc(S(=O)(=O)Cc2ccc(Cl)cc2F)s1)c1ccccn1 here?
**A.** 0.0441 µM

**Q.** How did the EC50 turn out when Cc1nc(NC(=O)c2ccccn2)sc1S(=O)(=O)Cc1ccc(F)cc1F was run?
**A.** 1.01 µM

**Q.** With Cc1nc(NC(=O)c2ccccn2)sc1S(=O)(=O)Cc1c(F)cccc1F as the molecule, how does the EC50 read?
**A.** 0.312 µM

**Q.** CCc1nc(NC(=O)c2ccccn2)sc1S(=O)(=O)Cc1ccc(Cl)cc1F was tested. Which EC50 did it give?
**A.** 0.294 µM

**Q.** Cc1nc(NC(=O)c2ccccn2)sc1S(=O)(=O)Cc1c(F)cccc1Cl was tested. Which EC50 did it give?
**A.** 0.192 µM

**Q.** Which EC50 does the source give for O=C(Nc1nc(C(F)(F)F)c(S(=O)(=O)Cc2ccc(F)cc2F)s1)c1ccccn1 here?
**A.** 1.73 µM

**Q.** Which EC50 does the source give for CCc1nc(NC(=O)c2ccccn2)sc1S(=O)(=O)Cc1c(F)cccc1Cl here?
**A.** 0.141 µM

**Q.** Which EC50 does the source give for Cc1ccccc1CS(=O)(=O)c1sc(NC(=O)c2ccccn2)nc1C here?
**A.** 0.709 µM

**Q.** How did the EC50 turn out when CCc1nc(NC(=O)c2ccccn2)sc1S(=O)(=O)Cc1ccc(Cl)cc1Cl was run?
**A.** 0.939 µM

**Q.** O=C(Nc1nc(C2CC2)c(S(=O)(=O)Cc2ccccc2Cl)s1)c1ccccn1 was tested. Which EC50 did it give?
**A.** 2.98 µM

**Q.** O=C(Nc1nc(C(F)(F)F)c(S(=O)(=O)Cc2c(F)cccc2F)s1)c1ccccn1 was tested. Which EC50 did it give?
**A.** 1.06 µM

**Q.** O=C(Nc1nc(C2CC2)c(S(=O)(=O)Cc2c(F)cccc2F)s1)c1ccccn1 was tested. Which EC50 did it give?
**A.** > 10 µM

**Q.** Which EC50 does the source give for Cc1nc(NC(=O)c2ccccn2)sc1S(=O)(=O)Cc1ccc(Cl)cc1 here?
**A.** 0.486 µM

**Q.** For COc1ccc(CS(=O)(=O)c2sc(NC(=O)c3ccccn3)nc2C)cc1, which EC50 is on record?
**A.** 1.96 µM

**Q.** Which EC50 does the source give for O=C(Nc1ncc(SCc2ccc(Cl)cc2Cl)s1)c1ccccn1 here?
**A.** 5 µM

**Q.** O=C(Nc1ncc(S(=O)(=O)Cc2ccccc2F)s1)c1ccccn1 was tested. Which EC50 did it give?
**A.** 0.398 µM

**Q.** With CC(C)c1nc(NC(=O)c2ccccn2)sc1S(=O)(=O)C(C)c1ccccc1F (stereo not given) as the molecule, how does the EC50 read?
**A.** 9.57 µM

**Q.** For CCc1nc(NC(=O)c2ccccn2)sc1S(=O)(=O)Cc1c(C)cc(C)cc1C, which EC50 is on record?
**A.** 0.354 µM

**Q.** With Cc1nc(NC(=O)c2ccccn2)sc1S(=O)(=O)Cc1ccc(F)cc1 as the molecule, how does the EC50 read?
**A.** 1.51 µM

**Q.** CCc1nc(NC(=O)c2ccccn2)sc1S(=O)(=O)Cc1c(Cl)cccc1Cl was tested. Which EC50 did it give?
**A.** 0.088 µM

**Q.** How did the EC50 turn out when Cc1ccc(CS(=O)(=O)c2sc(NC(=O)c3ccccn3)nc2C)cc1 was run?
**A.** 0.445 µM

**Q.** Which EC50 does the source give for Cc1nc(NC(=O)c2ccccn2)sc1S(=O)(=O)Cc1ccc(F)c(Cl)c1 here?
**A.** 2.35 µM

**Q.** Cc1nc(NC(=O)c2ccccn2)sc1S(=O)(=O)Cc1ccccc1F was tested. Which EC50 did it give?
**A.** 1.33 µM

**Q.** O=C(Nc1nc(C(F)F)c(S(=O)(=O)Cc2c(F)cccc2F)s1)c1ccccn1 was tested. Which EC50 did it give?
**A.** 0.683 µM

**Q.** With Cc1nc(NC(=O)c2ccccn2)sc1S(=O)(=O)Cc1cc(F)c(F)cc1F as the molecule, how does the EC50 read?
**A.** 0.322 µM

**Q.** Cc1ccc(S(=O)(=O)c2sc(NC(=O)c3ccccn3)nc2C)cc1 was tested. Which EC50 did it give?
**A.** 1.61 µM

**Q.** How did the EC50 turn out when O=C(Nc1nc(C2CC2)c(S(=O)(=O)Cc2ccc(F)cc2F)s1)c1ccccn1 was run?
**A.** 1.05 µM

**Q.** With Cc1nc(NC(=O)c2ccccn2)sc1S(=O)(=O)Cc1ccc(F)c(F)c1 as the molecule, how does the EC50 read?
**A.** 0.937 µM

**Q.** How did the EC50 turn out when Cc1cccc(S(=O)(=O)c2sc(NC(=O)c3ccccn3)nc2C)c1 was run?
**A.** 6.97 µM

**Q.** How did the EC50 turn out when Cc1nc(NC(=O)c2ccccn2)sc1S(=O)(=O)Cc1ccc(Cl)cc1Cl was run?
**A.** 0.289 µM

**Q.** O=C(Nc1nc(C2CC2)c(S(=O)(=O)Cc2ccc(Cl)cc2F)s1)c1ccccn1 was tested. Which EC50 did it give?
**A.** 1.29 µM

**Q.** With O=C(Nc1ncc(S(=O)(=O)Cc2c(F)cccc2F)s1)c1ccccn1 as the molecule, how does the EC50 read?
**A.** 0.17 µM

**Q.** With Cc1nc(NC(=O)c2ccccn2)sc1S(=O)(=O)Cc1cccc(Cl)c1 as the molecule, how does the EC50 read?
**A.** 1.39 µM

**Q.** For CC(C)c1nc(NC(=O)c2ccccn2)sc1S(=O)(=O)Cc1c(F)cccc1F, which EC50 is on record?
**A.** 0.316 µM

**Q.** Which EC50 does the source give for O=C(Nc1ncc(S(=O)(=O)Cc2ccc(Cl)cc2Cl)s1)c1ccccn1 here?
**A.** 0.0499 µM

**Q.** CC(C)c1nc(NC(=O)c2ccccn2)sc1S(=O)(=O)C(C)c1ccccc1Cl (stereo not given) was tested. Which EC50 did it give?
**A.** 3.75 µM

**Q.** With CC(C)c1nc(NC(=O)c2ccccn2)sc1S(=O)(=O)Cc1ccccc1F as the molecule, how does the EC50 read?
**A.** 3.66 µM

**Q.** CCc1nc(NC(=O)c2ccccn2)sc1S(=O)(=O)Cc1ccc(C)cc1 was tested. Which EC50 did it give?
**A.** 0.45 µM

**Q.** CC(C)c1nc(NC(=O)c2ccccn2)sc1S(=O)(=O)Cc1ccc(Cl)cc1F was tested. Which EC50 did it give?
**A.** 2.93 µM

**Q.** How did the EC50 turn out when CC(C)c1nc(NC(=O)c2ccccn2)sc1S(=O)(=O)Cc1ccc(Cl)cc1Cl was run?
**A.** 3.3 µM

**Q.** With CC(C)c1nc(NC(=O)c2ccccn2)sc1S(=O)(=O)Cc1ccccc1Cl as the molecule, how does the EC50 read?
**A.** 1.95 µM

**Q.** Cc1nc(NC(=O)c2ccccn2)sc1S(=O)(=O)C(C)c1ccccc1Cl (stereo not given) was tested. Which EC50 did it give?
**A.** 3.23 µM

**Q.** O=C(Nc1ncc(SCc2ccc(Cl)cc2F)s1)c1ccccn1 was tested. Which EC50 did it give?
**A.** 8.24 µM

**Q.** How did the EC50 turn out when O=C(Nc1nc(CF)c(S(=O)(=O)Cc2c(F)cccc2F)s1)c1ccccn1 was run?
**A.** 0.463 µM

**Q.** For O=C(Nc1nc(CO)c(S(=O)(=O)Cc2c(F)cccc2F)s1)c1ccccn1, which EC50 is on record?
**A.** 8.81 µM

**Q.** With O=C(Nc1nc(C(F)(F)F)c(S(=O)(=O)Cc2ccccc2F)s1)c1ccccn1 as the molecule, how does the EC50 read?
**A.** 0.401 µM

**Q.** Cc1nc(NC(=O)c2ccccn2)sc1S(=O)(=O)Cc1cccc(Cl)c1F was tested. Which EC50 did it give?
**A.** 0.535 µM

**Q.** Which EC50 does the source give for O=C(Nc1nc(C2CC2)c(S(=O)(=O)Cc2ccc(Cl)cc2Cl)s1)c1ccccn1 here?
**A.** > 10 µM

**Q.** How did the EC50 turn out when O=C(Nc1nc(C(F)(F)F)c(S(=O)(=O)Cc2ccc(Cl)cc2Cl)s1)c1ccccn1 was run?
**A.** 0.497 µM

**Q.** Which EC50 does the source give for O=C(Nc1nnc(S(=O)(=O)Cc2ccccc2)s1)c1ccccn1 here?
**A.** > 10 µM

**Q.** With Cc1nc(NC(=O)c2ccccn2)sc1S(=O)(=O)Cc1cc(F)ccc1F as the molecule, how does the EC50 read?
**A.** 1.07 µM

**Q.** With CCc1nc(NC(=O)c2ccccn2)sc1S(=O)(=O)Cc1cccc(Cl)c1F as the molecule, how does the EC50 read?
**A.** 0.488 µM

**Q.** Cc1nc(NC(=O)c2ccccn2)sc1S(=O)(=O)Cc1ccccc1C(F)(F)F was tested. Which EC50 did it give?
**A.** 1.02 µM

**Q.** For O=C(Nc1nc(C2CC2)c(S(=O)(=O)Cc2ccccc2F)s1)c1ccccn1, which EC50 is on record?
**A.** 0.249 µM

**Q.** Cc1nc(NC(=O)c2ccccn2)sc1S(=O)(=O)Cc1cccc(C(F)(F)F)c1 was tested. Which EC50 did it give?
**A.** 2.46 µM

**Q.** O=C(Nc1nc(C(F)(F)F)c(S(=O)(=O)Cc2ccc(Cl)cc2F)s1)c1ccccn1 was tested. Which EC50 did it give?
**A.** 0.181 µM

**Q.** With CC(C)c1nc(NC(=O)c2ccccn2)sc1S(=O)(=O)Cc1ccc(F)cc1F as the molecule, how does the EC50 read?
**A.** 3.11 µM

**Q.** Cc1nc(NC(=O)c2ccccn2)sc1S(=O)(=O)Cc1c(Cl)cccc1Cl was tested. Which EC50 did it give?
**A.** 0.117 µM

**Q.** Cc1nc(NC(=O)c2ccccn2)sc1S(=O)(=O)Cc1ccc(C(C)C)cc1 was tested. Which EC50 did it give?
**A.** 1.05 µM

**Q.** Which EC50 does the source give for Cc1nc(NC(=O)c2ccccn2)sc1S(=O)(=O)C(C)c1ccccc1F (stereo not given) here?
**A.** 4.78 µM

**Q.** How did the EC50 turn out when O=C(Nc1nc(C(F)(F)F)c(S(=O)(=O)Cc2ccccc2Cl)s1)c1ccccn1 was run?
**A.** 0.271 µM
